# Measured values taken from ChEMBL document CHEMBL4765381, “Neuropeptide FF and Its Receptors: Therapeutic Applications and Ligand Development” (J Med Chem, 2020).
# Numbered stars: 1 amine (or outer) side, 2 acyl side, 3 side chain; on linkers, the order of the positions; unused ones are H or OH. Square brackets hold non-standard residues; d marks the D form. Peptide text beside a SMILES is read from it. Nva(5-(4-Bn-piperidin-1-yl)) = N[C@@H](CCCN1CCC(Cc2ccccc2)CC1)C(=O)O; X1 = O=C1[C@@H](N[*:1])Cc2ccccc2CN1CCC(=O)[*:2]; Dmt = Cc1cc(O)cc(C)c1C[C@H](N)C(=O)O; NMeF = CN[C@@H](Cc1ccccc1)C(=O)O
# What was measured:
# [1] = target: T1, Neuropeptide FF receptor 2 (Homo sapiens, UniProt Q9Y5X5); assay: Displacement of [125I]EYF from human NPFFR2 expressed in CHO cells by gamma-counter method; assay type: cell-based
# [2] = target: Mu-type opioid receptor (Homo sapiens) (UniProt P35372); assay: Agonist activity at human mu-opioid receptor expressed in HEK293 cells assessed as inhibition of forskolin-induced cAMP accumulation preincubated for 15 mins followed by forskolin addition in presence of IBMX by Glo-sensor cAMP assay relative to control; assay type: functional, cell-based; conditions: filed as agonist
# [3] = target: Delta-type opioid receptor (Homo sapiens) (UniProt P41143); assay: Agonist activity at human delta-opioid receptor expressed in HEK293 cells assessed as inhibition of forskolin-induced cAMP accumulation preincubated for 15 mins followed by forskolin addition in presence of IBMX by Glo-sensor cAMP assay relative to control; assay type: functional, cell-based; conditions: filed as agonist
# [4] = target: Kappa-type opioid receptor (Homo sapiens, UniProt P41145); assay: Agonist activity at human kappa opioid receptor expressed in HEK293 cells assessed as inhibition of forskolin-induced cAMP accumulation incubated for 15 mins followed by forskolin addition in presence of IBMX by Glo-sensor cAMP assay relative to control; assay type: functional, cell-based
# [5] = target: T2, Neuropeptide FF receptor 1 (Homo sapiens, UniProt Q9GZQ6); assay: Agonist activity at human NPFFR1 expressed in CHO cells by [35S]-GTP S binding assay relative to control; assay type: cell-based
# [6] = target: T1, Neuropeptide FF receptor 2; assay: Agonist activity at human NPFFR2 expressed in CHO cells by [35S]-GTP S binding assay relative to control; assay type: cell-based
# [7] = Displacement of [125I][Tyr1]-NPFF from NPFF receptor in rat spinal cord membranes by Cheng-Prusoff analysis; assay type: cell membranes, Membrane
# Mus musculus = assay: Reversal of morphine-induced analgesia in icv dosed CDF1 mouse assessed as minimum effective dose measured after 15 mins by tail-flick test; assay type: functional; conditions: 0.25 h
# [8] = target: T1, Neuropeptide FF receptor 2; assay: Displacement of [125I]-1DMeNPFF from human NPFFR2 expressed in HEK293 cells incubated for 2 hrs by scintillation counting method; assay type: cell-based
# [9] = target: T2, Neuropeptide FF receptor 1; assay: Displacement of [125I]YVP from human NPFFR1 expressed in HEK293 cells by radioligand binding assay; assay type: cell-based
# [10] = Binding affinity to NPFFR in rat spinal cord; assay type: tissue-based
# [11] = Displacement of [125I]-1DMe from NPFF receptor in Sprague-Dawley rat dorsal horn of spinal cord incubated for 150 mins by autoradiography; assay type: tissue-based
# [12] = target: T2, Neuropeptide FF receptor 1; assay: Displacement of [125I]NPFF from human NPFFR1 expressed in CHO cell membranes incubated for 120 mins by scintillation/luminescence counting method; set-up: species or system Membrane
# [13] = target: T2, Neuropeptide FF receptor 1; assay: Antagonist activity at human NPFFR1 expressed in CHO-RD-HGA16 cells assessed as reduction in NPFF-induced calcium influx by measuring apparent dissociation constant Ke preincubated for 15 mins followed by NPFF addition by calcium-5 dye based fluorescence method; assay type: functional, cell-based; conditions: CHO/Galpha16, filed as antagonist
# [14] = target: T2, Neuropeptide FF receptor 1; assay: Antagonist activity at human NPFFR1 expressed in CHO-K1 cells assessed as apparent dissociation constant Ke by Eu-cAMP tracer based TR-FRET assay; assay type: functional, cell-based; conditions: filed as antagonist
# [15] = target: T1, Neuropeptide FF receptor 2; assay: Displacement of [125I]NPFF from human NPFFR2 expressed in CHO cell membranes incubated for 120 mins by scintillation/luminescence counting method; set-up: species or system Membrane
# [16] = target: T1, Neuropeptide FF receptor 2; assay: Antagonist activity at human NPFFR2 expressed in CHO-RD-HGA16 cells assessed as reduction in NPFF-induced calcium influx by measuring apparent dissociation constant Ke preincubated for 15 mins followed by NPFF addition by calcium-5 dye based fluorescence method; assay type: functional, cell-based; conditions: CHO/Galpha16, filed as antagonist
# [17] = target: T1, Neuropeptide FF receptor 2; assay: Antagonist activity at human NPFFR2 expressed in CHO-K1 cells assessed as apparent dissociation constant Ke by Eu-cAMP tracer based TR-FRET assay; assay type: functional, cell-based; conditions: filed as antagonist
# [18] = target: T2, Neuropeptide FF receptor 1; assay: Agonist activity at NPFFR1 (unknown origin) expressed in mouse NIH3T3 cells by receptor selection and amplification technology assay relative to control; assay type: cell-based
# [19] = target: Neuropeptide FF receptor 2 (Rattus norvegicus) (UniProt Q9EQD2); assay: Agonist activity at rat NPFFR2 by cell-based assay relative to control; conditions: filed as agonist
# [20] = target: T2, Neuropeptide FF receptor 1; assay: Antagonist activity at human NPFFR1 expressed in CHO-K1 cells assessed as reversal of agonist-induced inhibition of forskolin-stimulated cAMP accumulation incubated for 30 mins by LANCE ultra cAMP assay; assay type: functional, cell-based
# [21] = target: T1, Neuropeptide FF receptor 2; assay: Antagonist activity at human NPFFR2 expressed in CHO-K1 cells assessed as reversal of agonist-induced inhibition of forskolin-stimulated cAMP accumulation incubated for 30 mins by LANCE ultra cAMP assay; assay type: functional, cell-based
# T2 sequence (Q9GZQ6 whole entry): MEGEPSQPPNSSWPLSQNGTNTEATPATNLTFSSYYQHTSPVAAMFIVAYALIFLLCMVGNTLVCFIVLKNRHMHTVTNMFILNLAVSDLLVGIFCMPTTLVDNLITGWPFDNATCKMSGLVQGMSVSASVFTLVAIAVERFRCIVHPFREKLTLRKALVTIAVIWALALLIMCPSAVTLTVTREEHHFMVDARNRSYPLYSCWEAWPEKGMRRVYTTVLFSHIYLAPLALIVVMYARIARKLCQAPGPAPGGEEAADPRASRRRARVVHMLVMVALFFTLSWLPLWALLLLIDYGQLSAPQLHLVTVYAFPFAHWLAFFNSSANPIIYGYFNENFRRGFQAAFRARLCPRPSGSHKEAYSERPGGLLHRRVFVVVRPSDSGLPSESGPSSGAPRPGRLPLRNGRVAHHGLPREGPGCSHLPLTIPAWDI
# T1 sequence (Q9Y5X5 whole entry): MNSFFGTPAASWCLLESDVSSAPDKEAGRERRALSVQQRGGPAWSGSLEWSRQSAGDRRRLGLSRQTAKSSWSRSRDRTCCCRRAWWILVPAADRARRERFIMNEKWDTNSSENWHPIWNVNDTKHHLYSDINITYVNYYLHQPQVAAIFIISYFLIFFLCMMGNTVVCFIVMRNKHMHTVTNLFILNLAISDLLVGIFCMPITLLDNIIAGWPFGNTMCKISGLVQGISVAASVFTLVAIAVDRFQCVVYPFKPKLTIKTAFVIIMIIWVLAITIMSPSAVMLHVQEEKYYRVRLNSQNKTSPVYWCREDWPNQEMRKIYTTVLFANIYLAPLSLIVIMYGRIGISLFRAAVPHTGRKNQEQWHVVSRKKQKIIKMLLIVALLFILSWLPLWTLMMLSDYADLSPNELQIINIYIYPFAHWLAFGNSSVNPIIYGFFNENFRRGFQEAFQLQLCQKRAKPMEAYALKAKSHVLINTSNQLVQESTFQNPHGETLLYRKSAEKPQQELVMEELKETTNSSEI
# Sequence of Delta-type opioid receptor (Homo sapiens) (P41143 whole entry): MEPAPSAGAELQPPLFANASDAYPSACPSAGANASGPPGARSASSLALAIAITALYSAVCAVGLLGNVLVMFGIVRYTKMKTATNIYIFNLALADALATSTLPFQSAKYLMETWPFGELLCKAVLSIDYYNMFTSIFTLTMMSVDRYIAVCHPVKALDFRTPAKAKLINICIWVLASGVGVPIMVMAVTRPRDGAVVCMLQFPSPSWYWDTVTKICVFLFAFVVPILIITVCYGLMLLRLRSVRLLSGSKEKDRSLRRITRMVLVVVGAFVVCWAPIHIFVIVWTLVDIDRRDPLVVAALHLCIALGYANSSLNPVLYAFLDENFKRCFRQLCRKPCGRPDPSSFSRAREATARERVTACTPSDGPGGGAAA
# Sequence of Kappa-type opioid receptor (P41145 whole entry): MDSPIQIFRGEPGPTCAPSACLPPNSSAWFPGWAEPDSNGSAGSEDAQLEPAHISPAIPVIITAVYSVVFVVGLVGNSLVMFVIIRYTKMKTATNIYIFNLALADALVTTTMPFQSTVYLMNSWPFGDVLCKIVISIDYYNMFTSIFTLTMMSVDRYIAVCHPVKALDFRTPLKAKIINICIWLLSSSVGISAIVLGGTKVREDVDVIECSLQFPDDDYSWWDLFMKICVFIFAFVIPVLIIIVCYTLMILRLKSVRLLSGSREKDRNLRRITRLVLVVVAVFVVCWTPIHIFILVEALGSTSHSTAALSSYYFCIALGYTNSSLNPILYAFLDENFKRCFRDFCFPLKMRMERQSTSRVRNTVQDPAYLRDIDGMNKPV
# Sequence of Neuropeptide FF receptor 2 (Rattus norvegicus) (Q9EQD2 whole entry): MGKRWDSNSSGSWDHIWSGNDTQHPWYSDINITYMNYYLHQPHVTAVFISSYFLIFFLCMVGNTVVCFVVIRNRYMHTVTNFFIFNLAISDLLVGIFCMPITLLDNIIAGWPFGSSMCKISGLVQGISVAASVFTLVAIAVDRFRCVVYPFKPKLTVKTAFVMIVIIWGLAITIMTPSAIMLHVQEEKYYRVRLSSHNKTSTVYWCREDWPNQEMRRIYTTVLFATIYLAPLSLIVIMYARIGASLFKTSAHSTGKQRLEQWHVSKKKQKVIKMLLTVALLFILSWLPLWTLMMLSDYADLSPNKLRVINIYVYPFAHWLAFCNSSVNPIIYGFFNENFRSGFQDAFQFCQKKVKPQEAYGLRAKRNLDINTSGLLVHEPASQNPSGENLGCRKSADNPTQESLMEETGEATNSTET
# Sequence of Mu-type opioid receptor (Homo sapiens) (P35372 whole entry): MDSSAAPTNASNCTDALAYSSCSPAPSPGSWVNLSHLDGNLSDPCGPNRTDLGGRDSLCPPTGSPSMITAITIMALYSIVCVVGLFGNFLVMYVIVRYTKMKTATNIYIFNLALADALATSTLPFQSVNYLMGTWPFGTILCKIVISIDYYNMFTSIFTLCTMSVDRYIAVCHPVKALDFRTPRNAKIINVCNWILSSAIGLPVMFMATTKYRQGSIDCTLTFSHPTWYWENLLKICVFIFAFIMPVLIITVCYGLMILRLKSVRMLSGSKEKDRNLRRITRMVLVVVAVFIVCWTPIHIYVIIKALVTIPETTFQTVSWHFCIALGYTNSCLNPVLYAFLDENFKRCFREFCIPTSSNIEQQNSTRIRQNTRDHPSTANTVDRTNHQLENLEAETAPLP
smiles,measurement,setting,value
CC(C)C[C@H](NC(=O)[C@H](CC(N)=O)NC(=O)[C@@H]1CCCN1C(=O)[C@@H](N)C(C)C)C(=O)N1CCC[C@H]1C(=O)N[C@@H](CCC(N)=O)C(=O)N[C@@H](CCCNC(=N)N)C(=O)N[C@@H](Cc1ccccc1)C(N)=O,Ki,[1],23 nM
Cc1cc(O)cc(C)c1C[C@H](N)C(=O)N[C@H](CCCNC(=N)N)C(=O)N[C@H]1Cc2ccccc2CN(CCC(=O)N[C@@H](CCCN2CCC(Cc3ccccc3)CC2)C(=O)N[C@@H](Cc2ccccc2)C(N)=O)C1=O (H-[Dmt][dR][X1][Nva(5-(4-Bn-piperidin-1-yl))]F-NH2),Emax,[2],85%
same,Emax,[3],90%
same,Emax,[4],34%
same,Emax,[5],10%
same,Emax,[6],38%
CC(C)C[C@H](NC(=O)[C@@H](N)Cc1ccccc1)C(=O)N[C@@H](Cc1ccccc1)C(=O)N[C@@H](CCC(N)=O)C(=O)NCC(=O)N[C@@H](CCC(N)=O)C(=O)N[C@@H](CCCN=C(N)N)C(=O)N[C@@H](Cc1ccccc1)C(N)=O (H-FLFQGQRF-NH2),Ki,[7],1.2 nM
same,MEC,Mus musculus,8.8 nmol
CC(C)C[C@H](NC(=O)[C@H](N)Cc1ccc(O)cc1)C(=O)N(C)[C@@H](Cc1ccccc1)C(=O)N[C@@H](CCC(N)=O)C(=O)N1CCC[C@H]1C(=O)N[C@@H](CCC(N)=O)C(=O)N[C@@H](CCCN=C(N)N)C(=O)N[C@@H](Cc1ccccc1)C(N)=O (H-[dY]L[NMeF]QPQRF-NH2),Ki,[8],3.2 nM
same,Ki,[9],2 nM
same,Ki,[10],0.07 nM
CC(C)C[C@H](NC(=O)[C@@H](N)Cc1ccc(O)cc1)C(=O)N[C@@H](Cc1ccccc1)C(=O)N[C@@H](CCC(N)=O)C(=O)N1CCC[C@H]1C(=O)N[C@@H](CCC(N)=O)C(=O)N[C@@H](CCCN=C(N)N)C(=O)N[C@@H](Cc1ccccc1)C(N)=O (H-YLFQPQRF-NH2),Ki,[7],0.2 nM
same,MEC,Mus musculus,8.8 nmol
CC(C)C[C@H](NC(=O)[C@@H](N)Cc1ccccc1)C(=O)N[C@@H](Cc1ccccc1)C(=O)N[C@@H](CCC(N)=O)C(=O)N1CCC[C@H]1C(=O)N[C@@H](CCC(N)=O)C(=O)N[C@@H](CCCN=C(N)N)C(=O)N[C@@H](Cc1ccccc1)C(N)=O,MEC,Mus musculus,22 nmol
same,Ki,[11],0.34 nM
COc1ccc(CN[C@H]2C[C@@H](C(=O)OCCc3ccc([N+](=O)[O-])cc3)N(Cc3ccccc3Cl)C2)cc1,Ki,[12],610 nM
same,Ke,[13],0.25 µM
same,Ke,[14],0.49 µM
same,Ki,[15],1670 nM
same,Ke,[16],0.69 µM
same,Ke,[17],1.17 µM
N=C(N)N/N=C/c1ccc(Cl)c(Cl)c1,Efficacy,[18],12%
Cc1cc(NC(=N)N)nc2ccc(Cl)cc12,Emax,[19],61%
N=C(N)NCCC[C@@H](NC(=O)C(c1ccccc1)c1ccccc1)C(=O)N[C@@H](C(N)=O)c1ccccc1,IC50,[20],21 nM
same,IC50,[21],387 nM
CCCCCOC(=O)[C@@H]1C[C@H](NCc2ccc(OC)cc2)CN1Cc1ccccc1Cl,Ki,[12],890 nM
same,Ke,[13],0.85 µM
same,Ke,[14],0.36 µM
same,Ki,[15],1440 nM
same,Ke,[16],3.09 µM
same,Ke,[17],2.15 µM
